{"source": "paper PMC5923399", "about": "(Marine Drugs, 2018)", "key": {"GABABR-coupled Cav2.2": {"target": "T1, GABABR-coupled Cav2.2 (Homo sapiens, UniProt O75899+Q9UBS5)", "T1 construct": "expressed in transfected cells; host or cells: HEK293T cells, transient transfection; GABAB subunit plasmids from David J. Adams, University of Wollongong", "T1 sequence (Q9UBS5 15-961 limits assumed)": "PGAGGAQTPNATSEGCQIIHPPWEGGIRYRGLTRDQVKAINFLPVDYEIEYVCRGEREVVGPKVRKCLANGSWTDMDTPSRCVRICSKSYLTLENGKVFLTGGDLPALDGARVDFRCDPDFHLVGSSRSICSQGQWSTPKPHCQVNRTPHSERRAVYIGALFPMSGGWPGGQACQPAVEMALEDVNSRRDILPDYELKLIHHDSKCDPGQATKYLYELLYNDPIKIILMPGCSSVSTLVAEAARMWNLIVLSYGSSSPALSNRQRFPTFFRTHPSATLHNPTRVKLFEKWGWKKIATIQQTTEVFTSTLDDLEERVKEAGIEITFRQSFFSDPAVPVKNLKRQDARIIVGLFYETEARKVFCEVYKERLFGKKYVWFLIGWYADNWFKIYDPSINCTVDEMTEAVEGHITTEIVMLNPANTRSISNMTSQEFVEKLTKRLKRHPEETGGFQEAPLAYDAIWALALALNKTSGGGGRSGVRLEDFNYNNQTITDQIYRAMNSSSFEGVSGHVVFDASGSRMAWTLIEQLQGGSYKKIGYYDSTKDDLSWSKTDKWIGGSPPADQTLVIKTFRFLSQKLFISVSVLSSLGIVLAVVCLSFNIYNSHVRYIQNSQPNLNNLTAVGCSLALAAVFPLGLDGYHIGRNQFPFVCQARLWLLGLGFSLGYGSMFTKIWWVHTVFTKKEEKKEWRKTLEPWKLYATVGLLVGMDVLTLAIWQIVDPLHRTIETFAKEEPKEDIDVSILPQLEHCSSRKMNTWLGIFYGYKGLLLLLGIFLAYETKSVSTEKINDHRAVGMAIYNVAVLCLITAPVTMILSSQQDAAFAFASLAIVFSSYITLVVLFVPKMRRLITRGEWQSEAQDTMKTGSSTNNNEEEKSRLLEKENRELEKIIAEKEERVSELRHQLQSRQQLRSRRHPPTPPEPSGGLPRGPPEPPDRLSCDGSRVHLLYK", "T1 sequence (O75899 42-941)": "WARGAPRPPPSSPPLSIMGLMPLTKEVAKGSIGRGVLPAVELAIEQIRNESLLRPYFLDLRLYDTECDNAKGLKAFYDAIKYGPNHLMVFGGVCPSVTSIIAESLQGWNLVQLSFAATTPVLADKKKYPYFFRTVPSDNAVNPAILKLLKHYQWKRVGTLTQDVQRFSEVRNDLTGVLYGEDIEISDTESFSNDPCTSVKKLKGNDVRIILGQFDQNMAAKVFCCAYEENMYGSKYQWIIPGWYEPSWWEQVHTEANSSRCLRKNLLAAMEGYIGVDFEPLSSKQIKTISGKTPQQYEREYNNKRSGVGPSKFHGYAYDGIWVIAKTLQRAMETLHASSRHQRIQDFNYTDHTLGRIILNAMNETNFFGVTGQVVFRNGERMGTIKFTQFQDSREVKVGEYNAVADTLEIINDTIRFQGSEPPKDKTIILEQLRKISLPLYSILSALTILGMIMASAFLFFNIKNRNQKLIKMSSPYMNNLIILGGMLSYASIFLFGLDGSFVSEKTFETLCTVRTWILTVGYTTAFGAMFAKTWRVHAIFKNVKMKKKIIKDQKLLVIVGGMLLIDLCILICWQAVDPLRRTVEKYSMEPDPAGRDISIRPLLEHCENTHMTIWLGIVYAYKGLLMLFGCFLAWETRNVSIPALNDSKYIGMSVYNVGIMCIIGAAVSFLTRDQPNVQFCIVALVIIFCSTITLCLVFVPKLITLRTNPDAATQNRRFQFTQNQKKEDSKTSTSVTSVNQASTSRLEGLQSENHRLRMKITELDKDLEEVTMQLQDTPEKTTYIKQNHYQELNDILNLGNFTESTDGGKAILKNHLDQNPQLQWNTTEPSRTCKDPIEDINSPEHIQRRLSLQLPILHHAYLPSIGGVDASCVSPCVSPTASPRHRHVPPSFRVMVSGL", "assay": "cell-based", "parameters": "species or system human GABABR and rat Cav2.2"}, "rat α3β2 nAChRs": {"target": "T2, rat α3β2 nAChRs (Rattus norvegicus, UniProt P04757+P12390)", "T2 construct": "expressed in transfected cells; host or cells: Xenopus oocytes (cRNA injection)", "T2 sequence (P04757 26-499 limits assumed)": "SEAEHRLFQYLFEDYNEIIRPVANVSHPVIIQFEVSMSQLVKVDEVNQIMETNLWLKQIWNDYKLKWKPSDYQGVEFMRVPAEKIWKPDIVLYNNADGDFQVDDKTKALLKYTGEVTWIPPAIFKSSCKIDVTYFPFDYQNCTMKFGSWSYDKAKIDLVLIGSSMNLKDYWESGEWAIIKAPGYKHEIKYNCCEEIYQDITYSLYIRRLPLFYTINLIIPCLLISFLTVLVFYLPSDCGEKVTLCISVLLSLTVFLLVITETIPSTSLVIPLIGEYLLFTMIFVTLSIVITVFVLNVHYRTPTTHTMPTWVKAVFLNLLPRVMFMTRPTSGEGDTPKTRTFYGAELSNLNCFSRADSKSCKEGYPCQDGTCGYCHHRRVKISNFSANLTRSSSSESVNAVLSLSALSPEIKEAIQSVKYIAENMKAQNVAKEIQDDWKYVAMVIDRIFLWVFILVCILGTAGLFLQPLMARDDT", "T2 sequence (P12390 25-500 limits assumed)": "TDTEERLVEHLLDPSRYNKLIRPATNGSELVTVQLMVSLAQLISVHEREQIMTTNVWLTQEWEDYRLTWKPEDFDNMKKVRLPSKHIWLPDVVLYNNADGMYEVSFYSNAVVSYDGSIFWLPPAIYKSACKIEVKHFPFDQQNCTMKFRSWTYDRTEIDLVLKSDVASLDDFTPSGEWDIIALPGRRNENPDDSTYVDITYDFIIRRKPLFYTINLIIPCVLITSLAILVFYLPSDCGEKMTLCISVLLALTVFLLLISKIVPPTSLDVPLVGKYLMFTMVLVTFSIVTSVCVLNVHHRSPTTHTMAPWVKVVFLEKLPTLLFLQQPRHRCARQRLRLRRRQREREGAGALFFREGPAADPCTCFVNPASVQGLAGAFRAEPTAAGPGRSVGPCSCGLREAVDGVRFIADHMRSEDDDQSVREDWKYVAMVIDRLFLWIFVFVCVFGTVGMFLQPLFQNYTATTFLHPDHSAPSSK", "assay": "cell-based"}, "hα3β4 nAChR": {"tested_on": "hα3β4 nAChR", "settings": "cited from earlier work"}, "hα4β2 nAChR": {"tested_on": "hα4β2 nAChR", "settings": "cited from earlier work"}, "hα3β2 nAChR": {"tested_on": "hα3β2 nAChR", "settings": "cited from earlier work"}, "α4β2 nAChR": {"target": "T3, α4β2 nAChR (Rattus norvegicus, UniProt P09483+P12390)", "T3 construct": "expressed in transfected cells; host or cells: Xenopus oocytes (cRNA injection)", "settings": "cited from earlier work"}, "α7 nAChR": {"target": "T4, α7 nAChR (Rattus norvegicus, UniProt Q05941)", "T4 construct": "expressed in transfected cells; host or cells: Xenopus oocytes (cRNA injection)", "settings": "cited from earlier work"}, "α3β2 nAChR": {"tested_on": "α3β2 nAChR", "settings": "cited from earlier work"}, "α9α10 nAChR": {"target": "T5, α9α10 nAChR (Rattus norvegicus, UniProt P43144+Q9JLB5)", "T5 construct": "expressed in transfected cells; host or cells: Xenopus oocytes (cRNA injection)", "T5 sequence (P43144 26-479 limits assumed)": "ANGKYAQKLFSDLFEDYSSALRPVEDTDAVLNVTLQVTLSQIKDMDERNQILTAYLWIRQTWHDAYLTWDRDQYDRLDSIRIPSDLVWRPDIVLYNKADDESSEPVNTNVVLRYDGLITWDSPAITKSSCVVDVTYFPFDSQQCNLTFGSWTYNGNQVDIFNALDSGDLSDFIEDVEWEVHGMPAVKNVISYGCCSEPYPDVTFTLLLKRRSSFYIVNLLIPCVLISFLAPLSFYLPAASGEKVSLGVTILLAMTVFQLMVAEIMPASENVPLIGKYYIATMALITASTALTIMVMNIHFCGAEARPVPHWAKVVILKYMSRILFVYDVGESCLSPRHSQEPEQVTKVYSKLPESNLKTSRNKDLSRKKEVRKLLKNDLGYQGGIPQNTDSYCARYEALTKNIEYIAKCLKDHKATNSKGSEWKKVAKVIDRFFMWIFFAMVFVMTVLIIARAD", "T5 sequence (Q9JLB5 25-447 limits assumed)": "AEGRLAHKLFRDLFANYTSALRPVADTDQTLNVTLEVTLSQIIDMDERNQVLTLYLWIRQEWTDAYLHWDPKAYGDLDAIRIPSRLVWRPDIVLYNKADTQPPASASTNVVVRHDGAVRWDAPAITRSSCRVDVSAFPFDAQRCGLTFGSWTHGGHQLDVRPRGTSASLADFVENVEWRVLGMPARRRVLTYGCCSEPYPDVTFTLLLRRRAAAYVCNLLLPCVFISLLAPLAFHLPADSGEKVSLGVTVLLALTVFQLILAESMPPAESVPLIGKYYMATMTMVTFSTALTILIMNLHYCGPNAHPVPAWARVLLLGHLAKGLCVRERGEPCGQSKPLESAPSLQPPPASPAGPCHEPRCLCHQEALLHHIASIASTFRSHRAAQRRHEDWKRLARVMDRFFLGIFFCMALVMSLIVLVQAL", "settings": "read-out: IC50 α9α10; cited from earlier work"}}, "note": "Where a SMILES comes first, the peptide text is derived from it. Bridges are numbered along the chain shown (N, C = ends)."}
{"compound": "C[C@@H]1NC(=O)[C@@H]2CCCN2C(=O)[C@H](Cc2c[nH]cn2)NC(=O)[C@H](CO)NC(=O)[C@@H]2CSSC[C@H](NC1=O)C(=O)N[C@@H](CO)C(=O)NCC(=O)N[C@@H](CC(N)=O)C(=O)N[C@@H](CC(N)=O)C(=O)N1CCC[C@H]1C(=O)N[C@@H](Cc1ccc(O)cc1)C(=O)N[C@@H](Cc1ccccc1)C(=O)N[C@H](C(N)=O)CSSC[C@H](NC(=O)CN)C(=O)N2", "note": "[Lt1.3-I] (H-GCCSHPACSGNNPYFC-NH2; disulfide 2-16, 3-8)", "values": [{"measurement": "IC50", "setting": "GABABR-coupled Cav2.2", "value": 33.9, "unit": "nM"}, {"measurement": "inhibition at 0.1 µM", "setting": "GABABR-coupled Cav2.2; HEK-293T, read-out: inhibition of peak current amplitude, SEM", "value": "28 ± 3.8", "unit": "%"}, {"measurement": "IC50", "setting": "rat α3β2 nAChRs", "value": "> 10000", "unit": "nM"}]}
{"compound": "C[C@@H]1NC(=O)CNC(=O)[C@H](CO)NC(=O)[C@@H]2CSSC[C@H](NC(=O)CN)C(=O)N[C@@H](CSSC[C@@H](C(N)=O)NC(=O)[C@H](Cc3ccccc3)NC(=O)[C@H](Cc3ccc(O)cc3)NC(=O)[C@@H]3CCCN3C(=O)[C@H](CC(N)=O)NC1=O)C(=O)N[C@@H](CO)C(=O)N[C@@H](Cc1c[nH]cn1)C(=O)N1CCC[C@H]1C(=O)N[C@@H](C)C(=O)N2", "note": "[Lt1.3[N11A]] (H-GCCSHPACSGANPYFC-NH2; disulfide 2-8, 3-16; N-terminus assumed)", "values": [{"measurement": "IC50", "setting": "rat α3β2 nAChRs", "value": "> 10000", "unit": "nM"}]}
{"compound": "C[C@@H]1NC(=O)[C@@H]2CSSC[C@H](NC(=O)CN)C(=O)N[C@@H](CSSC[C@@H](C(N)=O)NC(=O)[C@H](Cc3ccccc3)NC(=O)[C@H](Cc3ccc(O)cc3)NC(=O)[C@@H]3CCCN3C(=O)[C@H](CC(N)=O)NC(=O)[C@H](CC(N)=O)NC(=O)CNC1=O)C(=O)N[C@@H](CO)C(=O)N[C@@H](Cc1c[nH]cn1)C(=O)N1CCC[C@H]1C(=O)N[C@@H](C)C(=O)N2", "note": "[Lt1.3[S9A]]", "values": [{"measurement": "IC50", "setting": "rat α3β2 nAChRs", "value": 35.4, "unit": "nM"}]}
{"compound": "G CC SHPA C AGNNQHI C * (bicyclic or more) [GIC, α4/7-CTx targeting nAChR α3β2]", "values": [{"measurement": "IC50", "setting": "hα3β4 nAChR", "value": 755, "unit": "nM"}, {"measurement": "IC50", "setting": "hα4β2 nAChR", "value": 309, "unit": "nM"}, {"measurement": "IC50", "setting": "hα3β2 nAChR", "value": 1.1, "unit": "nM"}]}
{"compound": "G CC SNPV C HLEHSNL C * (bicyclic or more) (GCCSNPVCHLEHSNLC) [MII, α4/7-CTx targeting nAChR α3β2]", "values": [{"measurement": "IC50", "setting": "α4β2 nAChR", "value": 548, "unit": "nM"}, {"measurement": "IC50", "setting": "α7 nAChR", "value": "~200", "unit": "nM"}]}
{"compound": "G CC SNPV C HLEHSNL C * (bicyclic or more) [MII, α4/7-CTx targeting nAChR α3β2]", "values": [{"measurement": "IC50", "setting": "α3β2 nAChR", "value": 0.5, "unit": "nM"}]}
{"compound": "GG CC SHPA C AANNQD(sTy) C * (bicyclic or more) [AnIB, α4/7-CTx targeting nAChR α3β2]", "values": [{"measurement": "IC50", "setting": "α3β2 nAChR", "value": 0.3, "unit": "nM"}]}
{"compound": "IRDE CC SNPA C RVNNOHV C RRR (bicyclic or more) [ArIA, α4/7-CTx targeting nAChR α3β2]", "values": [{"measurement": "IC50", "setting": "α3β2 nAChR", "value": 18, "unit": "nM"}]}
{"compound": "PE CC THPA C HVSHPEL C * (bicyclic or more) [Mr1.7, α4/7-CTx targeting nAChR α3β2]", "values": [{"measurement": "IC50", "setting": "α3β2 nAChR", "value": 53.1, "unit": "nM"}, {"measurement": "IC50", "setting": "α9α10 nAChR", "value": 188, "unit": "nM"}]}
{"compound": "SG CC SNPA C RVNNPNI C * (bicyclic or more) (SGCCSNPACRVNNPNIC) [LsIA, α4/7-CTx targeting nAChR α3β2]", "values": [{"measurement": "IC50", "setting": "α7 nAChR", "value": 10.1, "unit": "nM"}]}
{"compound": "SG CC SNPA C RVNNPNI C * (bicyclic or more) [LsIA, α4/7-CTx targeting nAChR α3β2]", "values": [{"measurement": "IC50", "setting": "α3β2 nAChR", "value": 10.3, "unit": "nM"}]}
